Source: patent publication US9951102B2, “Peptide inhibitor of Nox1 NADPH oxidase” (University of Iowa Research Foundation, priority 2014, dated 2018)
Where no end group is shown, it is not given here.

Columns and labels:
[1] = test system: NADPH oxidase activity in VSMC membrane fractions; assay: ROS detection by lucigenin-enhanced chemiluminescence; format: cell-based, rat; details: 30 minute pre-incubation, 100 nM DPI or 100 μM CalC, TNF-α 10 ng/mL 10 minutes
Description: A7r5 rat aortic smooth muscle cells were seeded at 75% confluence in 10% FBS medium, infected with AdNox1GFP for 48 hours, serum-starved in 0.2% FBS medium for 24 hours. Cells were then subjected to a 30 minute pre-incubation with 100 nM DPI or 100 μM CalC or DMSO, then treated with 10 ng/mL TNF-α for 10 minutes, washed three times in cold PBS, and homogenized in Homogenization Buffer (0.25 M sucrose, 10 mM triethanolamine, 4% protease inhibitor cocktail, 0.1 M EDTA, pH 7.4) with a Tissue Tearor. Lucigenin was then added to a final concentration of 5 μM. Samples were then analyzed by a FB12 Chemiluminometer every 10 seconds for 5 minutes. Then NADPH was added to a final concentration of 100 μM and readings were taken for another 5 m. Average baseline value was subtracted from the average NADPH-stimulated value.

[2] = biological target: T1, NoxA1 activation domain (AD) peptide LEPMDFLGKAKVV (Homo sapiens, UniProt Q86UR1); assay: Isothermal titration calorimetry peptide interaction; format: binding; details: ITC, 25° C., pH 7.4, n=3 independent experiments, ± standard deviation; read-out: Affinity (Kd) for the interaction with NoxA1 AD peptide
T1 construct: purchased ProImmune
Description: The affinity of the interaction between non-phosphorylated and phosphorylated Nox1 and NoxA1 was determined by isothermal titration calorimetry (ITC). Phosphorylated or non-phosphorylated peptides corresponding to amino acids KLKTQKIYF (SEQ ID NO:9) of Nox1 and a peptide corresponding to amino acids LEPMDFLGKAKVV (SEQ ID NO:10) of NoxA1 peptides were purchased from ProImmune. The peptides were resuspended in 20 mM Na2HPO4, 100 mM […], pH 7.4 to a final concentration of 800 μM (Nox1) and 20 μM (NoxA1). The peptides were degassed and ITC measurements recorded using a MicroCal VP-ITC System (GE Healthcare). 21 injections of Nox1 peptides into NoxA1 peptide were used, with 240 s spacing between events. The chamber was kept under constant stirring at 350 rpm and all experiments were performed at 25° C. […] The constant heat of dilution, as determined by the average of the last 3-5 injections, was subtracted and the data are analyzed using the single site binding model provided in the ITC analysis package. The values for affinity and stoichiometry from three experiments were averaged and shown±standard deviation.

[3] = test system: WT VSMC migration; assay: Transwell migration assay to TNF-α; format: cell-based, mouse; details: CalC pretreatment 30 minutes, 5 hours migration
Description: WT or Nox1^−/y C57 mouse aortic VSMCs were pretreated with CalC or DMSO (vehicle) for 30 minutes, washed once with PBS, and cells were detached with trypsin, which was quenched with trypsin inhibitor. Cells were transferred to a conical tube, centrifuged at 500 g for 5 minutes. The SNT was aspirated, and cells were resuspended in 125 μL cell culture medium containing no FBS. Cell counts were obtained on a Beckman Z1 Coulter Particle Counter. Cells suspensions were diluted to a concentration of 1,000 cells/μL. 50 μL of the cell suspension was added to the upper chamber of a Costar Transwell Permeable Support (8.0 μm polycarbonate membrane, 6.5 mm insert). 500 μl medium containing no FBS with or without TNF-α was added to the lower chamber. […] Cells were fixed in 4% paraformaldehyde, membranes were removed from support with a scalpel and mounted in Vectashield plus DAPI, cover-slipped and five random fields from each membrane were imaged at 20× and the number of cells migrated to the bottom of the Transwell was counted. […]
500 μL Opti-MEM was added to a 60 mm gelatin-coated cell culture plate. […] Cells were detached by use of trypsin, which was quenched in 10% FBS containing no antibiotics, centrifuged at 500 g for 5 minutes, resuspended in 5 mL 10% FBS without antibiotics and counted. […] Cells were then prepared for analysis by WB, DCF fluorescence or migration assay.

[4] = test system: Nox1 phosphorylation in A7r5 rat aortic VSMCs; assay: TNF-α-stimulated Nox1 phosphorylation, anti-p22phox IP / anti-STY Western blot, A7r5 VSMCs; format: cell-based; details: CalC pretreatment 100 nM, TNF-α 10 ng/mL 10 minutes
Description: Equal volumes of samples were pre-cleared with Protein G Dynabeads (10 μL/1.5 mg protein in lysate) for 30 minutes at 4° C., end-over-end rotation, followed by a quick spin at high speed, then placed on a magnetic rack for 1 minute. SNT was removed to a new tube on ice. The p22^phox/Nox1 complex was immunoprecipitated using anti-p22^phox antibody C-17 (1 μg/500 μg protein in lysate) and rotated for 45 minutes at 4° C. (Hanna et al., 2004). Next, 20 μL Protein G Dynabeads was added to each sample and rotated for 20 minutes at 4° C., followed by a quick spin at high speed, then placed on a magnetic rack 1 m. SNT was moved to a new tube on ice and frozen for later analysis. The Dynabead pellet was washed three times with 200 μL NP40 buffer, followed by addition of 15 μL twice with sample buffer (4% SDS, 20% glycerol, 10% 2-mercaptoethanol, 0.004% bromphenol blue, 0.125 M Tris HCl, pH 6.8). […] Samples were then analyzed by WB.
One quarter volume of 5× sample buffer (6 g SDS, 40% glycerol, 30% 2-mercaptoethanol, 383.3 mg dithiothreitol, 372 mg EDTA, 378.3 mg Tris, 50 mg bromphenol blue in 50 ml ddH2O, pH 6.8) was added to lysates. […] Phosphorylation of Nox1 residues was determined utilizing a phospho-serine/threonine/tyrosine (p-STY) antibody that reacts with these residues only under phosphorylated conditions (Zhang et al., 2010, Chen et al., 2006). […]

[5] = test system: TNF-α-induced Nox1-dependent ROS production in WT VSMCs; assay: ROS detection by CM-H2DCF fluorescence in VSMCs; format: cell-based, mouse; details: CalC pretreatment, TNF-α 10 ng/mL 30 minutes
Description: C57 WT or Nox1^−/y VSMCs were seeded on glass chamber slides at 75% confluence, serum-starved in cell culture medium containing no FBS for 24 h, washed in phenol red-free DMEM, and incubated in 10 μM CM-H2DCFDA for 30 m, pretreated with CalC or DMSO, and treated with 10 ng/mL TNF-α for 30 minutes. The cells were then washed 3×100 μL cold PBS, fixed with 2% paraformaldehyde for 15 minutes, washed twice with PBS, incubated in 1 μM To-Pro-3 for 5 minutes in dark, and washed twice with PBS. The chambers were removed and cells were mounted in Vectashield and imaged by confocal microscopy.
500 μL Opti-MEM was added to a 60 mm gelatin-coated cell culture plate. To this siPKC-β or siControl was added (final concentration 200 nM), plus 12 μL RNAiMax. Plates were rocked and incubated for 20 minutes. Cells were detached by use of trypsin, which was quenched in 10% FBS containing no antibiotics, centrifuged at 500 g for 5 minutes, resuspended in 5 mL 10% FBS without antibiotics and counted. Cells were added to plate for a seeding density of 75%, and medium was added to a final volume of 3 mL. Cells were incubated for 5 hours at 37° C., then medium was changed to 10% FBS. The next day, cells were serum starved in medium containing no FBS for 24 hours. Cells were then prepared for analysis by WB, DCF fluorescence or migration assay.

Compound | TNF-α-primed NADPH oxidase activity (lucigenin-enhanced chemiluminescence) [1] | Kd [2] [µM] | Migration of WT VSMCs to TNF-α [3] | TNF-α-stimulated Nox1 phosphorylation [4] | Nox1-dependent ROS production (CM-H2DCF fluorescence) [5]
[Cl-].c1ccc2c(c1)[I+]c1ccccc1-2 [DPI, Diphenyleneiodoium chloride] | completely abolished | – | – | – | –
KLKTQKIYF [Nox1 peptide, KLKTQKIYF] | – | > 100 | – | – | –
COc1c(C[C@@H](C)OC(=O)Oc2ccc(O)cc2)c2c3c(C[C@@H](C)OC(=O)c4ccccc4)c(OC)c(=O)c4c(O)cc(OC)c(c5c(OC)cc(O)c(c1=O)c52)c43 [CalC, Calphostin C] | completely abolished | – | blocked | inhibited | abrogated
